In the METLIN SMRT retention time set (Domingo-Almenara et al. 2019):

Assay: gradient 5% acetonitrile 3 min, to 50% in 2 min, to 85% in 15 min, held 3 min, 100 µL/min
Settings: column: Zorbax Extend-C18 2.1 x 50 mm; eluents: water / acetonitrile, 0.1% formic acid
Summary of the method: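 Data were gathered over 3 months by HPLC coupled to a quadrupole time-of-flight mass spectrometer, operated in positive and negative ionization mode. Mixtures of ~100 pure standards ran on a Zorbax Extend-C18 column (2.1 × 50 mm, 1.8 μm) at 100 μL/min, with water and acetonitrile each containing 0.1% formic acid and dead and dwell volumes of 40 μL and 900 μL. Retention time was read from adduct peaks picked by computer and checked manually.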

Compound	RP-LC retention time
CCOc1ccc(CNC(=O)c2snc(C(=O)NCc3ccc(F)cc3)c2N)cc1	1040 s
O=S(=O)(c1cc(-c2nnc(-c3ccc(F)cc3)o2)ccc1Cl)N1CCOCC1	984 s
CCNC(=O)Nc1ccc2c(c1)CN(S(=O)(=O)CC)CCO2	660 s
CCn1nc(N2CCCC(NS(=O)(=O)c3ccc(F)c(Cl)c3)C2)ccc1=O (stereo not given)	817 s
CCOC(=O)C(C)Oc1ccc2c(=O)c(Oc3ccccc3OCC)coc2c1 (stereo not given)	971 s
CCNC(=O)N1CCC2(CC1)c1nccn1-c1ccccc1CN2CC(C)C	623 s
COc1cc(OC)cc(-c2nc(C3CC(=O)N(c4ccc(F)c(Cl)c4)C3)no2)c1 (stereo not given)	1110 s
CCCCOc1ccc(-c2nc3ccc(Br)cc3c(C(=O)O)c2C)cc1	963 s
COc1cccc(-n2c(=O)c3sccc3n(Cc3nc(-c4ccc(C(C)(C)C)cc4)no3)c2=O)c1	1220 s
Cc1c(C(=O)NC2CC2)cnn1-c1ccc(-c2nc(C(C)(C)C)no2)cn1	947 s
COC[C@@H]1CN(c2cnccn2)C[C@H]1C(=O)NCc1cc(C)nn1C	563 s
CC1CCCN(C(=O)c2cn(-c3cc(N4CCOCC4)ncn3)cn2)C1 (stereo not given)	709 s
Cc1ccc(C)c(C(=O)NCCc2cn(CC(C)C)c3ncccc23)c1	892 s
Cc1c(C(=O)N2CCSCC2)cnn1-c1cc(-c2nc(C(C)(C)C)no2)ccn1	1070 s
O=C(Nc1ccc(F)cc1F)N1CCC(N(C(=O)C2CC2)C2CCOCC2)CC1	719 s
COCCn1c(CCCC(=O)NC2CCCCCC2)nc2cccnc21	667 s
Cc1cc(C(=O)Nc2ccc(C)c(F)c2)n(CC(=O)Nc2ccc(F)cc2)n1	922 s
COc1ccc(Br)c2c1-c1nc(NC(=O)c3ccc(F)cc3)sc1C2	1170 s
COc1ccc(C(=O)Nc2cccn3nc(C(C)C)nc23)cc1	873 s
CC(C(=O)Nc1c(F)cccc1F)C1CCN(C(=O)Nc2ccc(Cl)cc2)CC1 (stereo not given)	865 s
Cc1oc2c(c1C(=O)Nc1ccc(F)cc1Br)C1=NC(C)(C)CN1C=N2	671 s
CCCN(CCC)S(=O)(=O)c1ccc(Cl)c(OC)c1	1030 s
C=CCNC(=O)c1cn(-c2ccc(-c3nc(C(C)(C)C)no3)cn2)cn1	883 s
Cc1ccc2c(=O)c3c([nH]c2c1C)CCN(CC(=O)Nc1cccc(C#N)c1)C3	607 s

Compound	RP-LC retention time
CC(C)C(=O)N1CCc2cc(CNC(=O)c3ccnn3C)ccc21	708 s
O=C(NC1CCCCC1)N1CCC(c2noc(COCC3CC3)n2)CC1	830 s
CCCN1C(=O)CN(S(C)(=O)=O)CC1(C)C(=O)NCc1ccc(C)cc1 (stereo not given)	758 s
Cc1ccc(CNC2=NCCNC23CCN(S(=O)(=O)c2ccc(C)cc2)CC3)cc1	736 s
O=C(NCc1noc(C2CCCC2)n1)c1coc(C2CC2)n1	821 s
COc1ccc(CNS(=O)(=O)c2ccccc2-c2nc(-c3ccc(F)cc3)no2)cc1	1160 s
Cc1nc2cc(-c3noc(-c4sc(C)nc4C)n3)ccc2o1	951 s
COc1cccc(NC(=O)Cn2nc3cc(C)nc(Nc4ccc(C)c(C)c4)n3c2=O)c1	1100 s
COc1cccc(NC(=O)NCCc2cn(C)c3ncccc23)c1	662 s
COc1ccc(Nc2c(-c3ccc(C)cc3)nc3ncccn23)cc1	720 s
COC(=O)c1cc2c(=O)n(-c3cccc(Cl)c3Cl)ccc2nc1C	915 s
CCCN1C(=O)COc2ccc(-c3noc(Cc4cc(OC)cc(OC)c4)n3)cc21	1080 s
COc1ccc(OC)c(NC(=O)Cn2c(=O)n(-c3ccc(C)cc3)c3ncccc32)c1	896 s
CN(C)S(=O)(=O)Nc1ccccn1	630 s
C=Cc1ccc(CN2C(=O)CCC2c2nc(C)no2)cc1 (stereo not given)	731 s
O=C(Cn1nc2c3cc(F)ccc3ncn2c1=O)Nc1ccc(F)c(Cl)c1	706 s
O=C(Nc1ccc(F)c(Cl)c1)N1CCc2nc[nH]c2C1	614 s
CCOc1cc(=O)n2c(c1C(=O)Nc1ccc(Br)cc1F)CCCC2	790 s
Cc1sc(-c2noc(C(C)C)n2)cc1S(=O)(=O)N1CCC(C(=O)N2CCC(C)CC2)CC1	1150 s
Cc1sc2cc(C(=O)NC3CCCCC3)[nH]c2c1CN1CCOCC1	671 s
CCn1ccc(C(=O)N2CCC(CC(=O)NC3CC3)C2)n1 (stereo not given)	630 s
Cc1ccc(CN(CC(=O)N2CCNCC2)C(=O)c2sccc2C)cc1C	669 s
COc1cc(OC)c(NC(=O)Nc2c(-c3ccc(C)cc3)nc3ccccn23)cc1Cl	721 s

The next lines start with the values.

RP-LC retention time	Compound
1030 s	O=C1CCC(=O)N1CCc1c[nH]c2ccc(OCc3ccccc3)cc12
737 s	O=C(NCCC1CCN(C(=O)Nc2ccc(F)cc2F)CC1)c1cccs1
888 s	Cc1ccc(C(=O)Nc2ccc(N3CCN(C4CCCC4)C3=O)nc2)cc1
705 s	O=C(c1cccs1)N1CCCCC1c1nncn1-c1ccccc1 (stereo not given)
708 s	O=C(c1ccc2[nH]ccc2c1)N1CCN(c2cc(-c3cccs3)[nH]n2)CC1
725 s	CN(C)C(=O)c1n[nH]c2c1CN(C(=O)c1ccccc1C(F)(F)F)CC2
664 s	Cc1ccc2nc3sc(C(=O)N4CCN(c5ccccn5)CC4)cc3cc2c1
717 s	Cn1nc(C(=O)N2CCCCC2)c2c1CCN(C(=O)Nc1ccc3c(c1)OCO3)C2
969 s	CC(C)CCNC(=O)C1CCCN(c2nccn3nc(-c4ccccc4Cl)cc23)C1 (stereo not given)
836 s	O=C(NCc1ccccc1)C1=C2CCCN2c2ccc(F)cc2S1(=O)=O
892 s	O=C(CCc1ccccc1)Nc1nnc(SCC(=O)c2ccccc2)s1
670 s	Cn1c(C2CCN(C(=O)Nc3ccc(Cl)cc3F)CC2)cc(=O)n2nccc12
617 s	Cn1cc(CCN2CCC(C(=O)N3CCN(c4ccccc4)CC3)CC2)c2cccnc21
1040 s	O=C(Nc1ccccc1Cl)N1CCCC1c1nc(-c2ccc(F)cc2F)no1 (stereo not given)
1020 s	O=C(NCc1ccccc1)C12CC3CCC(CC(C3)C1)C2
825 s	Cc1ccc(NC(=O)C2CCCN(c3ncnc4c3oc3ccccc34)C2)cc1 (stereo not given)
902 s	Cc1csc(-c2ccc(N3CCN(C(=O)Cc4ccc(Cl)cc4)CC3)nc2)n1
668 s	CC1CCN(C(=O)c2cc3c(s2)CCC(C(=O)NCc2ccccn2)C3)CC1 (stereo not given)
735 s	CC(NC(=O)C1CCN(c2ncnc3c2oc2ccccc23)CC1)c1ccccc1 (stereo not given)
584 s	Cc1ccccc1NC(=O)c1ccc(=O)n(CCN2CCCC2)c1
824 s	COCCCNc1c(-c2cccc(F)c2)nc2sc(C(=O)N3CCCC3)c(C)n12
964 s	O=S1(=O)CCN(c2ccccc2CC(c2c[nH]c3ccccc23)c2c[nH]c3ccccc23)CC1

RP-LC retention time	Compound
880 s	Cc1ccc2[nH]cc(CCNC(=O)CCc3ccccc3)c2c1
820 s	CN(C)c1cccc(C(=O)N2CCN(c3cc(-c4ccc(Cl)cc4)[nH]n3)CC2)c1
913 s	COc1ccc(C2=Nc3ccccc3N(CC(=O)Nc3ccc4c(c3)OCCO4)C(=O)C2)cc1
838 s	CC(Oc1cccc(Cl)c1)c1nc(-c2ccc3c(c2)ncn3CCC(=O)N2CCCC2)no1 (stereo not given)
767 s	Cc1cc(Cl)ccc1OCC(=O)N1CCCCC1c1nncn1C (stereo not given)
611 s	CC(C)n1cnnc1CC1CCN(C(=O)C2CCC2)CC1
679 s	O=C(NCCc1ccccc1)N1C[C@@H]2C[C@H](NS(=O)(=O)c3cccnc3)[C@H]1C2
615 s	CS(=O)(=O)N(Cc1cccnc1)C1CN(C(=O)c2ccc3ccccc3n2)C1
897 s	O=C(CN1C(=O)C(C(=O)N2CCCC2)Sc2ccccc21)N1CC=C(c2ccccc2)CC1 (stereo not given)
731 s	CCOc1ccc(CN2CCC(NC(=O)Cc3cccnc3)C2)cn1 (stereo not given)
600 s	COc1ccccc1NC(=O)Cn1ncc2c(N3CCN(c4ccccn4)CC3)ncnc21
701 s	Cc1noc(C)c1CC(=O)NC1CCN(c2ccc(=O)n(CCOc3ccccc3)n2)C1 (stereo not given)
714 s	CC(C)C(=O)NCCn1c(=O)n(Cc2ccccc2)c2cccnc21
689 s	CN(C)C(=O)c1ccc2c(c1)N(CC(=O)N1CCN(c3ccccc3)CC1)C(=O)CO2
1050 s	O=C(NCCc1c[nH]c2ccccc12)c1noc2c1CCc1sccc1-2
817 s	COc1ccc(C(=O)N2CCCC2c2nc(-c3ccc(OC)c(OC)c3)no2)cc1OC (stereo not given)
1160 s	Cc1cc(SCC(=O)N2CCN(c3ccccc3)CC2)nc(-c2ccc(F)cc2)n1
743 s	COCCSc1nnc(NC(=O)C2CCN(C(=O)c3ccccc3Cl)CC2)s1
981 s	CN1C(=O)C2CCCCN2c2ccc(C(=O)NCCN3CCCC3)cc21 (stereo not given)
777 s	Cc1cccn2cc(C(=O)NCc3cccc(Cl)c3)nc12
684 s	CCOc1ccccc1C(=O)NC1CCN(c2cc(-c3ccccc3)[nH]n2)C1 (stereo not given)
